Reference: EP4725505A1, “PROPHYLACTIC AND/OR THERAPEUTIC AGENT FOR SKIN DISORDER ASSOCIATED WITH HISTONE DEACETYLASE 4 ABNORMALITY” (National University Corporation Kobe University, priority 2023, dated 2025)

System: HDAC4
Test: Improving action on expression of HDAC4 in UV-B-irradiated XP-A-iMCs (RT-PCR)
Format: cell-based, human
Conditions: XP-A-iMCs irradiated with high-dose (150 J/m^2) UV-B, compound then added to cell medium, cultured for 24 hours, DMSO control
Experimental: The XP-A-iMCs were seeded into a 60-millimeter dish, and were irradiated with high-dose (150 J/m^2) UV-B when the XP-A-iMCs became about 70% confluent. […] After that, the expression of HDAC4 was recognized by using a RT-PCR method.
The XP-A-iMCs were seeded into a 60-millimeter dish, and were irradiated with high-dose (150 J/m^2) UV-B when the XP-A-iMCs became about 70% confluent.

Structure (SMILES): CC1=NN(c2ccc(C(=O)O)cc2)C(=O)C1=Cc1ccc(-c2cc(C)c(C)cc2[N+](=O)[O-])o1 [C-646]
- expression of HDAC4: significantly recovered
